# In US20170071208A1, “COMPOSITIONS FOR MOSQUITO CONTROL AND USES OF SAME” (Forrest Innovations Ltd., priority 2014, published 2017):
# B1: Cytochrome p450 (CYP9J26): dsRNA targeting Cytochrome p450 (CYP9J26, JF924909.1), SEQ ID NO: 1824 (nucleic acid)
# chain: CTTCAACGACTTCGTCCGATCAATTTACAACAAATATCCTGGAGTGAAGGTTTTCGGAATGTTCGAGACGATCACGCCGTTCTTCGTGATTCGCGATCCGGAGTTGATCAAGCAGATCGGCATCAAGGATTTCGATCACTTCGTTGACCACCGTCCGACGTTCGGACTGGACGATGAAACGGCGGAGCATCCGAAGGCGCTGTTCCGCAAGACGCTGTTCTCGATGACCGGTCAACGGTGGAAGGAGATGCGCGCTACGCTGAGTCCGGCTTTTACCGGCAGTAAGATGCGACAGATGTTCTCGCTGATGAGCGAATGCTGCGACGAAATGATGAAGCACTACCTGGACAAGGCGAAGGGCACGGGAAGGGTGGAAGTCGAAATGAAGGACTTGCTGAGTCGAATCACTATCAATGTGATTGCGTCGTGTGCTTTTGGAATCAAGGTGGAC
# modifications: double stranded RNA
# B2: Aub: dsRNA targeting PIWI protein Aub (AAEL007698), SEQ ID NO: 1858 (nucleic acid)
# chain: TCTTCTCCACCACAGCCAATGGCGTACAGGCTGGAGAACAGGCAGATTGGACGGCCCATTTCCGTAACAATCCCATGTTCGCTACGGTGCGGTTGACGCGATGGTATTTGATCGTACCGAACCGGGCTTCACGTGAGGCCAACGATTTCCTGGGCTGCATGATTCAAGCCGCACGCGGTATGCGATTTGAGATTAGTAACTGTGAGGTGGTCACCATTCCGGACGACAACCCAGGTACCTATGTGCGAACATTGGACAATCTGCTGAATAAGGACCCGCAGTTGGTGATGTGCGTCGTGACCAACAATAAGGCCGATCGGTACACCGCCATCAAGAAGAAATGTTGCGTTGATCGTGCCATCCCAACGCAAGTCATGGTACAAAAAACGATCACACCAAAGGGTGGTAATGTACGAACACTCATGTCCGTG
# modifications: double stranded RNA
# B3: PgP: dsRNA targeting P-glycoprotein (AAEL010379), SEQ ID NO: 1822 (nucleic acid)
# chain: TGGAAAAGTTGACATTGACGGGATCACGACAACTGATTTCCAGCTTGGCCGCATACGTTCACAAATGGGTCTCGTATCGCAAGAACCTGTTCTGTTTGATCGCACCATCGCGGAAAATATTGCTTATGGTGACAACACTCGCGAGATAAGCATGCCGGAGATAATCGAGGCATCCAAAATGGCAAACATTCACGAATTCATCGTCAATCTACCGAAGGGGTATGACACTAGCCTAGGAACCAAAGGAGCTCAATTGTCTGGTGGCCAAAAGCAACGTATTGCTATAGCTCGTGCTTTGGTTAGAAATCCACGAATCC
# modifications: double stranded RNA
# Columns and labels:
# Format in all cases: in vivo, Aedes aegypti
# [1] = test system: Ae. aegypti mosquitoes (RJ strain); test: dsRNA treatment of larvae (soaking, or soaking plus feeding), then pyrethroid adulticide bottle bioassay of adult females
# Method: (§1) Third instar larvae were treated (in groups of 100 larvae) in a final volume of 3 mL of dsRNA solution in autoclaved water (0.5 μg/μL for sodium channel (AAEL008297), PgP (AAEL010379) and Ago3 (AAEL007823) dsRNA, or 0.1 μg/μL for CYP9J26 (JF924909.1). The control group was kept in 3 ml sterile water only. Larvae were soaked in the dsRNA solutions for 24 hr at 27° C., and then transferred into new containers (300 larvae/1500 mL of chlorine-free tap water), which were also maintained at 27° C., and were provided 6 mg/100 mL lab dog/cat diet (Purina Mills) suspended in water as a source of food on a daily basis. As pupae developed, they were transferred to individual vials to await eclosion and sex sorting. For bioassays purpose only females up to five days old were used. See Flowchart 1, FIG. 1 for detailed explanation of this experiment.
# After soaking in the dsRNA solutions for 24 hr at 27° C., the larvae were transferred into new containers (300 larvae/1500 mL of chlorine-free tap water), and were provided agarose cubes containing 300 μg of dsRNA once a day for a total of four days. The larvae were reared until adult stage. For bioassays purpose only females up to five days old are used. See Flowchart 2, FIG. 2 for detailed explanation of this experiment.
# Bottles were prepared following the Brogdon and McAllister (1998) protocol [Brogdon and McAllister (1998) Emerg Infect Dis 4:605-613]. Fifteen-twenty non-blood-fed females from each site were introduced in 250 mL glass bottles impregnated with different concentrations of deltamethrin (Sigma-Aldrich) in 1 ml acetone. Each test consisted of four impregnated bottles and one control bottle. The control bottle contained acetone with no insecticide. At least three tests were conducted for each insecticide and population. Immediately prior to use, all insecticide solutions were prepared fresh from stock solutions. At 15, 30 and 45 min intervals, the number of live and dead mosquitoes in each bottle was recorded. The mortality criteria included mosquitoes with difficulties flying or standing on the bottle's surface. Mosquitoes that survived the appropriate dose for insecticide were considered to be resistant [Brogdon and McAllister (1998), supra].
# Cubes of dsRNA-containing mosquito food were prepared as follows: First, 300 μg of dsRNA were mixed with 30 μg of Polyethylenimine 25 kD linear (Polysciences) in 200 μL of sterile water. Then, a suspension of ground mosquito larval food (6 grams/100 mL) was prepared with 2% agarose (Fisher Scientific). The food/agarose mixture was heated to 55° C. and 200 μL of the mixture was then transferred to the tubes containing 200 μL of dsRNA+PEI or water only (control). The mixture was then allowed to solidify into a gel. The solidified gel containing both the food and dsRNA was cut into small pieces (approximately 1 mm thick) using a razor blade, which were then used to feed mosquito larvae in water.
# [2] = test system: sodium channel (AAEL008297) mRNA; test: qPCR analysis of sodium channel mRNA expression after dsRNA treatment
# Method: as §1
# Total RNA was extracted from groups of five Ae. aegypti fourth instar larvae and early adult male/female Ae. aegypti, using TRIzol (Invitrogen, Carlsbad, Calif., USA) according to the manufacturer's instructions. RNA was treated with amplification grade DNase I (Invitrogen) and 1 μg was used to synthesize cDNA using a First Strand cDNA Synthesis kit (Invitrogen). PCR products were purified using a QIAquick PCR purification kit (Qiagen). The MEGAscript RNAi kit (Ambion) was then used for in vitro transcription and purification of dsRNAs. See Flowchart 4, FIG. 4 for detailed explanation production off dsRNA.
# Approximately 1000 ng first-strand cDNA obtained as described previously was used as template. The qPCR reactions were performed using SYBR® Green PCR Master Mix (Applied Biosystems) following the manufacturer's instructions. […] Raw quantification cycle (Cq) values normalized against those of the tubulin and S7 standards were then used to calculate the relative expression levels in samples using the 2^−ΔΔct method [Livak & Schmittgen, (2001) Methods. […]
# [3] = test system: Ae. aegypti Rockefeller strain; test: Oviposition assay after larval dsRNA soaking plus feeding; settings: larvae soaked 24 h in 0.5 μg/μL dsRNA, fed twice with agarose plug containing dsRNA; 15 engorged females per cage; vs water control
# Method: FIG. 12 is a flowchart illustration depicting introduction of dsRNA into mosquito larvae via soaking with different doses of “naked” dsRNA plus additional larvae feeding with food-containing dsRNA. Step a) 100 larvae from A. aegypti Rockefeller strain (3rd instar) were soaked for 24 hours with the respective dsRNAs (concentration range from 0.02-0.5 μg/μL) or only in water and were then fed 2 times with food plus agarose 2% containing dsRNA until they reach adult stage (Step b). Step c) The adults arising were allowed to copulate for 3-5 days. Step d) mosquitoes were fed with defibrinated sheep blood. Step e) after blood feeding 15 fully-engorged females were transferred into 3 small cages to be assayed for oviposition. Step f) the total number of laid eggs and the percentage of hatched eggs were counted. FIGS. 13A-B are graphs illustrating larvae from Ae. aegypti Rockefeller strain (3rd instar) soaked for 24 hours in 0.5 μg/μL of Aubergine (Aub) or Argonaute-3 (Ago) dsRNAs or water only. […] (FIG. 13A) The total number of laid eggs and the percentage of hatched eggs were counted (FIG. 13B). […]
# (§2) Five days after the blood meal, an ovipositon cup was place inside each cage containing 15 females to allow the females to lay their eggs. […] The number of eggs laid was counted and used to check the viability and egg hatching rate.
# [4] = test system: Ae. aegypti Rockefeller strain; test: Egg hatching rate after larval dsRNA soaking plus feeding; settings: larvae soaked 24 h in 0.5 μg/μL dsRNA, fed twice with agarose plug containing dsRNA; vs water control
# Method: FIG. 12 is a flowchart illustration depicting introduction of dsRNA into mosquito larvae via soaking with different doses of “naked” dsRNA plus additional larvae feeding with food-containing dsRNA. Step a) 100 larvae from A. aegypti Rockefeller strain (3rd instar) were soaked for 24 hours with the respective dsRNAs (concentration range from 0.02-0.5 μg/μL) or only in water and were then fed 2 times with food plus agarose 2% containing dsRNA until they reach adult stage (Step b). Step c) The adults arising were allowed to copulate for 3-5 days. Step d) mosquitoes were fed with defibrinated sheep blood. Step e) after blood feeding 15 fully-engorged females were transferred into 3 small cages to be assayed for oviposition. Step f) the total number of laid eggs and the percentage of hatched eggs were counted. […] (FIG. 13A) The total number of laid eggs and the percentage of hatched eggs were counted (FIG. 13B). […]
# as §2
# To check the viability of the eggs the oviposition paper were kept to dry and embrionate for a period minimum of 5 days. […] The hatching rate (HR) for each treatment were calculated as follow: HR=total number of hatched larvae/total number of eggs oviposited). […]
# [5] = test system: P-glycoprotein (AAEL010379) mRNA; test: qPCR analysis of P-glycoprotein mRNA expression after dsRNA treatment; settings: vs water
# Method: as §1
# Total RNA was extracted from groups of five Ae. aegypti fourth instar larvae and early adult male/female Ae. aegypti, using TRIzol (Invitrogen, Carlsbad, Calif., USA) according to the manufacturer's instructions. […]
# Approximately 1000 ng first-strand cDNA obtained as described previously was used as template. […] Raw quantification cycle (Cq) values normalized against those of the tubulin and S7 standards were then used to calculate the relative expression levels in samples using the 2^−ΔΔct method [Livak & Schmittgen, (2001) Methods. […]
molecule,measurement,setting,value
"sodium channel dsRNA: dsRNA targeting Ae. aegypti sodium channel (AAEL008297), SEQ ID NO: 1825",susceptibility of adult mosquitoes to deltamethrin (mortality rate),"[1]; 3rd instar larvae soaked 24 h in 0.5 μg/μL naked dsRNA vs water, adult females exposed to deltamethrin 0.5 μg/bottle",increased susceptibility
same,susceptibility of adult mosquitoes to deltamethrin (mortality rate),"[1]; 3rd instar larvae soaked 24 h in 0.5 μg/μL naked dsRNA vs water, adult females exposed to deltamethrin 0.5 μg/bottle, listed as dsRNA against sodium channel",increased substantially the susceptibility
same,susceptibility of adult mosquitoes to deltamethrin (mortality rate),"[1]; larvae soaked 24 h in 0.5 μg/μL dsRNA, then fed 4 times with food-containing dsRNA, adult females, deltamethrin 0.5 μg/bottle",increased susceptibility
same,susceptibility of adult mosquitoes to deltamethrin (mortality rate),"[1]; larvae soaked 24 h in 0.5 μg/μL dsRNA, then fed 4 times with food-containing dsRNA, adult females, deltamethrin 0.5 μg/bottle, listed as dsRNA against sodium channel",increased the susceptibility
same,sodium channel mRNA expression level,"[2]; adult female mosquitoes soaked as larvae, collected before deltamethrin treatment, vs water",decreased expression
same,sodium channel mRNA expression level,"[2]; dead female mosquitoes collected after exposure to deltamethrin, compared to water-treated mosquitoes",striking decrease
same,sodium channel mRNA levels,"[2]; larvae soaked 24 h in dsRNA, 24 and 48 hours after the end of dsRNA treatment, vs water",decreased mRNA levels
B1,susceptibility of adult mosquitoes to deltamethrin (mortality rate),"[1]; larvae soaked 24 h in 0.1 μg/μL dsRNA, then fed 4 times with food-containing dsRNA, adult females, deltamethrin 0.5 μg/bottle, first 15 minutes of contact",more sensitive
same,susceptibility of adult mosquitoes to deltamethrin (mortality rate),"[1]; larvae soaked 24 h in 0.1 μg/μL dsRNA, then fed 4 times with food-containing dsRNA, adult females, deltamethrin 0.5 μg/bottle, first 15 minutes of contact, listed as CYP9J29 dsRNA",affects the susceptibility
B2,oviposition rate (total number of laid eggs),[3],no difference
same,number of hatched eggs (hatchability),[4],50%
B3,PgP mRNA expression,[5]; adult mosquitoes soaked with dsRNA as larvae,reached normal levels
same,PgP mRNA levels,"[5]; larvae soaked 24 h in dsRNA, 24 and 48 hours after the end of dsRNA treatment",decreased mRNA levels
